Target: T1, Axl (Homo sapiens, UniProt P30530)
T1 construct: endogenous in cells; host or cells: HeLa cells
T1 sequence (P30530 26-894): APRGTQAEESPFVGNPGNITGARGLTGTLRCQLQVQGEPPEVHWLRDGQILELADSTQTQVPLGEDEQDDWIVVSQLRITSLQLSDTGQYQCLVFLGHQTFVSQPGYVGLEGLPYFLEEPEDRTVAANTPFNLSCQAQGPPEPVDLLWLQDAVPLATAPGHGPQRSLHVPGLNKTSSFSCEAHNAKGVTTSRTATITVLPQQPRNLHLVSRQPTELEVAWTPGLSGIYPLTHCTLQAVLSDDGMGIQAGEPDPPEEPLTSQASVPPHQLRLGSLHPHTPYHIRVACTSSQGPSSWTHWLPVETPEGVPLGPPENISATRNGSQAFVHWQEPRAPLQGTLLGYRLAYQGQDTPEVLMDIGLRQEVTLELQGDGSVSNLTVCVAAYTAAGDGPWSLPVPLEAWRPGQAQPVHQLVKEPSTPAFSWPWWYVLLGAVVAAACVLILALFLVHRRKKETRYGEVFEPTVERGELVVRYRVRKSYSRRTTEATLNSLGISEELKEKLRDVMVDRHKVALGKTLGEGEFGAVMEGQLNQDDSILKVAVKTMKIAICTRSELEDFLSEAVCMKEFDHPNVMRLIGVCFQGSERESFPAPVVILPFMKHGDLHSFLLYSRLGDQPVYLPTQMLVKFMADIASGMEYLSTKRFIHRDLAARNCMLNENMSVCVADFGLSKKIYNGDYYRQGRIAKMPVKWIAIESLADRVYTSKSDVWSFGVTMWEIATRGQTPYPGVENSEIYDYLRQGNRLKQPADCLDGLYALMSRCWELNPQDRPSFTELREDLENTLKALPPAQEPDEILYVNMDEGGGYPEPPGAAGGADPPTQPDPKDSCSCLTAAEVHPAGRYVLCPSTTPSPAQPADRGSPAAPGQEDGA
Assay: Phospho-Akt in-cell Western assay
Type: cell-based
Settings: Hela cells, stimulated by Axl-antibody cross-linking, phospho-Akt chemiluminescence; Table 1, formula (Ia)
Method: Phospho-Akt in-Cell Western Assay
The compounds of the invention were tested in the following assay for their ability to inhibit Axl activity.
• Cell culture plate: 96 well assay plate (Corning 3610), white, clear bottom, tissue-culture treated. • Cells: Hela cells. • Starvation medium: For Axl stimulation: 0.5% FCS (fetal calf serum) in DMEM, plus Axl/Fc (extracellular domain of AXL fused to imunoglobulin Fc region) (R&D, 154-AL) 500 ng/mL. • For EGF (epidermal growth factor) stimulation: 0.5% FCS in DMEM (Dulbecco's modified Eagles medium). • Poly-L-Lysine 0.01% solution (the working solution): 10 μg/ml, dilute In PBS (phosphate buffered saline). • Axl antibody cross-linking: • 1st: Mouse anti-Axl (R&D, MAB154). • 2nd: Biotin-SP-conjugated AffiniPure goat anti-mouse IgG (H+L) (Jackson ImmunoResearch #115-065-003). • Fixing buffer: 4% formaldehyde in PBS. • Wash buffer: 0.1% TritonX-100 in PBS. • Quenching buffer: 3% H2O2, 0.1% Azide in wash buffer, Azide and hydrogen peroxide (H2O2) are added fresh. • Blocking buffer: 5% BSA in TBST (tris buffered saline plus 0.1% Tween 20). • Primary antibody: Rabbit anti-human Phospho-Akt antibody (Cell Signaling 9271): 1×250 diluted in blocking buffer. • Secondary antibody: HRP (horse radish peroxidase)-conjugated Goat anti-Rabbit secondary, stock solution: Jackson ImmunoResearch (Goat anti-Rabbit HRP, #111-035-144) 1:1 diluted in glycerol, store at −20° C. The working solution: 1×2000 dilution of stock in blocking buffer. • Chemiluminescent working solution (Pierce, 37030): SuperSignal ELISA (enzyme linked immunosorbant assay) Pico Chemiluminescent substrate. • Crystal Violet solution: Stock: 2.5% Crystal violet in methanol, filtered and kept at ambient temperature. The working solution: dilute the stock 1:20 with PBS immediately before use. • 10% SDS: working solution: 5% SDS (sodium dodecylsulfate), diluted in PBS Methods: Day 1:
A 96 well TC (tissue culture treated) plate was coated with 10 μg/mL poly-L-Lysine at 37° C. for 30 min, washed twice with PBS, and air-dried for 5 minutes before cells were added. Hela cells were seeded at 10,000 cells/well and the cells were starved in 100 μL starvation medium containing Axl/Fc for 24 hrs.
The cells were pre-treated with test compounds by adding 100 μL of 2× test compound to the starvation medium on the cells. The cells were incubated at 37° C. for 1 hr before stimulation.
The cells were stimulated by Axl-antibody cross-linking as follows: A 5× 1st/2nd Axl antibody mixture was made (37.5 μg/mL 1st/100 μg/mL 2nd) in starvation medium and nutated at 4° C. with thorough mixing for 1-2 hours for clustering. The resulting mix was warmed to 37° C. 50 μL of 5× Axl 1st/2nd of antibody cluster was added to the cells and the cells were incubated at 37° C. for 5 min.
After 5 minutes stimulation, the plate was flicked to remove medium and the plate was tapped onto paper towels. Formaldehyde (4.0% in PBS, 100 μL) was added to fix the cells and the cells were incubated at ambient temperature for 20 min without shaking.
The cells were washed with a plate washer buffer to remove the formaldehyde solution. The plate was flicked to removed excess wash buffer and tapped onto paper towels. Quenching buffer (100 μL) was added to each well and the cells were incubated at ambient temperature for 20 minutes without shaking.
The cells were washed with a plate washer buffer to remove the quenching buffer. Blocking buffer (100 μL) was added and the cells were incubated at ambient temperature for at least an hour with gentle shaking.
The cells were washed with a plate washer buffer and diluted primary antibody (50 μL) was added to each well (blocking buffer was added to the negative control wells instead). The plates were incubated overnight at 4° C. with gentle shaking.
The wash buffer was removed, diluted secondary antibody (100 μL) was added, and the cells were incubated at ambient temperature for 1 hour with gentle shaking. […]

| SMILES | IC50 [µM] |
| --- | --- |
| Nc1nc(Nc2ccc3c(c2)CC[C@@H](N(CC2CC2)CC2CC2)CC3)nn1-c1cc2c(nn1)-c1ccccc1CCC2 [Compound 16, 1-(6,7-dihydro-5H-benzo[6,7]cyclohepta[1,2-c]pyridazin-3-yl)-N^3-((7s)-7-(di(cyclopropylmethyl)amino)-6,7,8,9-tetrahydro-5H-benzo[7]annulene-2-yl)-1H-1,2,4-triazole-3,5-diamine] | < 1 |
| CC(C)CN[C@H]1CCc2ccc(Nc3nc(N)n(-c4cc5c(nn4)-c4ccccc4CCC5)n3)cc2CC1 [Compound 17, 1-(6,7-dihydro-5H-benzo[6,7]cyclohepta[1,2-c]pyridazin-3-yl)-N^3-((7S)-7-((2-methylpropyl)amino)-6,7,8,9-tetrahydro-5H-benzo[7]annulene-2-yl)-1H-1,2,4-triazole-3,5-diamine] | < 1 |
| CCCN[C@H]1CCc2ccc(Nc3nc(N)n(-c4cc5c(nn4)-c4ccccc4CCC5)n3)cc2CC1 [Compound 18, 1-(6,7-dihydro-5H-benzo[6,7]cyclohepta[1,2-c]pyridazin-3-yl)-N^3-((7S)-7-((propyl)amino)-6,7,8,9-tetrahydro-5H-benzo[7]annulene-2-yl)-1H-1,2,4-triazole-3,5-diamine] | < 1 |
| CCCN(CCC)[C@H]1CCc2ccc(Nc3nc(N)n(-c4cc5c(nn4)-c4ccccc4CCC5)n3)cc2CC1 [Compound 19, 1-(6,7-dihydro-5H-benzo[6,7]cyclohepta[1,2-c]pyridazin-3-yl)-N^3-((7S)-7-(dipropylamino)-6,7,8,9-tetrahydro-5H-benzo[7]annulene-2-yl)-1H-1,2,4-triazole-3,5-diamine] | < 1 |
| CCN(CC)[C@H]1CCc2ccc(Nc3nc(N)n(-c4cc5c(nn4)-c4ccccc4CCC5)n3)cc2CC1 [Compound 20, 1-(6,7-dihydro-5H-benzo[6,7]cyclohepta[1,2-c]pyridazin-3-yl)-N^3-((7S)-7-(diethylamino)-6,7,8,9-tetrahydro-5H-benzo[7]annulene-2-yl)-1H-1,2,4-triazole-3,5-diamine] | < 1 |
| Nc1nc(Nc2ccc3c(c2)CC[C@@H](NC2CCCCC2)CC3)nn1-c1cc2c(nn1)-c1ccccc1CCC2 [Compound 21, 1-(6,7-dihydro-5H-benzo[6,7]cyclohepta[1,2-c]pyridazin-3-yl)-N^3-((7S)-7-(cyclohexylamino)-6,7,8,9-tetrahydro-5H-benzo[7]annulene-2-yl)-1H-1,2,4-triazole-3,5-diamine] | < 1 |
| Nc1nc(Nc2ccc3c(c2)CC[C@@H](NC2CCCC2)CC3)nn1-c1cc2c(nn1)-c1ccccc1CCC2 [Compound 22, 1-(6,7-dihydro-5H-benzo[6,7]cyclohepta[1,2-c]pyridazin-3-yl)-N^3-((7S)-7-(cyclopentylamino)-6,7,8,9-tetrahydro-5H-benzo[7]annulene-2-yl)-1H-1,2,4-triazole-3,5-diamine] | < 1 |
| CC(C)N[C@H]1CCc2ccc(Nc3nc(N)n(-c4cc5c(nn4)-c4ccccc4CCC5)n3)cc2CC1 [Compound 24, 1-(6,7-dihydro-5H-benzo[6,7]cyclohepta[1,2-c]pyridazin-3-yl)-N^3-((7S)-7-(2-propylamino)-6,7,8,9-tetrahydro-5H-benzo[7]annulene-2-yl)-1H-1,2,4-triazole-3,5-diamine] | < 1 |
| CC(N[C@H]1CCc2ccc(Nc3nc(N)n(-c4cc5c(nn4)-c4ccccc4CCC5)n3)cc2CC1)C(C)(C)C (stereo partly drawn) [Compound 25, 1-(6,7-dihydro-5H-benzo[6,7]cyclohepta[1,2-c]pyridazin-3-yl)-N^3-((7S)-7-((3,3-dimethylbut-2-yl)amino)-6,7,8,9-tetrahydro-5H-benzo[7]annulene-2-yl)-1H-1,2,4-triazole-3,5-diamine] | 1 to 10 |
| Nc1nc(Nc2ccc3c(c2)CC[C@@H](NCC2CCCCC2)CC3)nn1-c1cc2c(nn1)-c1ccccc1CCC2 [Compound 26, 1-(6,7-dihydro-5H-benzo[6,7]cyclohepta[1,2-c]pyridazin-3-yl)-N^3-((7S)-7-((cyclohexylmethyl)amino)-6,7,8,9-tetrahydro-5H-benzo[7]annulene-2-yl)-1H-1,2,4-triazole-3,5-diamine] | < 1 |
